From PubChem BioAssay (NCI)
Values joined by “and” are separate entries in the source; they are usually repeats but may differ in a detail not shown here. Equal entries are not always repeated.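 How tested: cells in 96-well plates exposed to compound for 48 hours at five concentrations. The concentration for 50% growth inhibition is given as GI50. The concentration for full growth arrest is given as TGI.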

Experiments:
Test in all cases: DTP human tumour cell line panel, 48 h
M14 melanoma = tested on: M14 melanoma
NCI-H460 lung = tested on: NCI-H460 lung
LOX IMVI melanoma = tested on: LOX IMVI melanoma
CCRF-CEM leukemia = tested on: CCRF-CEM leukemia
HCC-2998 colon = tested on: HCC-2998 colon
786-0 renal = tested on: 786-0 renal
SN12C renal = tested on: SN12C renal
NCI-H522 lung = tested on: NCI-H522 lung
SK-MEL-5 melanoma = tested on: SK-MEL-5 melanoma
A549 NSCLC = tested on: A549 NSCLC

Structure (SMILES): Cc1ncc(C(=O)Nc2ccc(CN3CCN(C)CC3)c(C(F)(F)F)c2)cc1C#Cc1cnc(NC2CC2)c2ncccc12
- GI50 (M14 melanoma): 560 nM
- TGI (M14 melanoma): 1110 nM
- GI50 (NCI-H460 lung): 623 nM
- TGI (NCI-H460 lung): 1190 nM
- GI50 (LOX IMVI melanoma): 590 nM
- TGI (LOX IMVI melanoma): 1110 nM
- GI50 (CCRF-CEM leukemia): 614 nM
- TGI (CCRF-CEM leukemia): 1460 nM
- GI50 (HCC-2998 colon): 1270 nM
- TGI (HCC-2998 colon): 2880 nM
- GI50 (786-0 renal): 650 nM
- TGI (786-0 renal): 1160 nM
- GI50 (SN12C renal): 1670 nM
- TGI (SN12C renal): 3320 nM
- GI50 (NCI-H522 lung): 635 nM
- TGI (NCI-H522 lung): 1230 nM
- GI50 (SK-MEL-5 melanoma): 546 nM
- TGI (SK-MEL-5 melanoma): 1040 nM
- GI50 (A549 NSCLC): 682 nM
- TGI (A549 NSCLC): 1330 nM

Structure (SMILES): O=C(/C=C/c1ccccc1)CC(c1ccccc1)N1CCOCC1 (stereo not given)
- GI50 (M14 melanoma): 1790 nM
- TGI (M14 melanoma): 3410 nM
- GI50 (NCI-H460 lung): 15500 nM
- TGI (NCI-H460 lung): 33200 nM
- GI50 (LOX IMVI melanoma): 371 nM
- TGI (LOX IMVI melanoma): 1360 nM
- GI50 (CCRF-CEM leukemia): 2420 nM
- TGI (CCRF-CEM leukemia): 7300 nM
- GI50 (HCC-2998 colon): 1900 nM
- TGI (HCC-2998 colon): 3540 nM
- GI50 (786-0 renal): 1950 nM
- TGI (786-0 renal): 3610 nM
- GI50 (SN12C renal): 4250 nM
- TGI (SN12C renal): 14800 nM
- GI50 (NCI-H522 lung): 4100 nM
- TGI (NCI-H522 lung): 20000 nM
- GI50 (SK-MEL-5 melanoma): 4870 nM
- TGI (SK-MEL-5 melanoma): 17500 nM
- GI50 (A549 NSCLC): 11700 nM
- TGI (A549 NSCLC): 29000 nM

Structure (SMILES): CC1CCCc2c1nn(C(=O)/C=C(\N)c1ccccc1)c2N (stereo not given)
- GI50 (M14 melanoma): 12300 nM
- TGI (M14 melanoma): > 100000 nM
- GI50 (NCI-H460 lung): 4230 nM
- TGI (NCI-H460 lung): > 100000 nM
- GI50 (LOX IMVI melanoma): 6290 nM
- TGI (LOX IMVI melanoma): > 100000 nM
- GI50 (CCRF-CEM leukemia): 6800 nM
- TGI (CCRF-CEM leukemia): > 100000 nM
- GI50 (HCC-2998 colon): 14600 nM
- TGI (HCC-2998 colon): 85500 nM
- GI50 (786-0 renal): 16200 nM
- TGI (786-0 renal): > 100000 nM
- GI50 (SN12C renal): 8130 nM
- TGI (SN12C renal): > 100000 nM
- GI50 (NCI-H522 lung): 13600 nM
- TGI (NCI-H522 lung): 61700 nM
- GI50 (SK-MEL-5 melanoma): 4350 nM
- TGI (SK-MEL-5 melanoma): 45700 nM
- GI50 (A549 NSCLC): 9060 nM
- TGI (A549 NSCLC): > 100000 nM

Structure (SMILES): CNC(=O)c1cc2c(Oc3ccc(NC(=O)C4(C(=O)Nc5ccc(F)cc5)CC4)cc3)ccnc2cc1OC
- GI50 (M14 melanoma): 2450 nM
- TGI (M14 melanoma): 11200 nM
- GI50 (NCI-H460 lung): 3880 nM
- TGI (NCI-H460 lung): > 100000 nM
- GI50 (LOX IMVI melanoma): 2570 nM
- TGI (LOX IMVI melanoma): 8930 nM
- GI50 (CCRF-CEM leukemia): 3000 nM
- TGI (CCRF-CEM leukemia): > 100000 nM
- GI50 (HCC-2998 colon): 5610 nM
- TGI (HCC-2998 colon): > 100000 nM
- GI50 (786-0 renal): 3460 nM
- TGI (786-0 renal): > 100000 nM
- GI50 (SN12C renal): 1100 nM
- TGI (SN12C renal): > 100000 nM
- GI50 (NCI-H522 lung): 2510 nM
- TGI (NCI-H522 lung): > 100000 nM
- GI50 (SK-MEL-5 melanoma): 2370 nM
- TGI (SK-MEL-5 melanoma): 6510 nM
- GI50 (A549 NSCLC): 2820 nM
- TGI (A549 NSCLC): 16900 nM

Structure (SMILES): Cc1nc(Nc2n[nH]c3c2CN(C(=O)N[C@H](CN(C)C)c2ccccc2)C3(C)C)c2sccc2n1
- GI50 (M14 melanoma): 58.6 nM and 103 nM
- TGI (M14 melanoma): > 3220 nM and 8370 nM
- GI50 (NCI-H460 lung): 13.2 nM and 22.3 nM
- TGI (NCI-H460 lung): > 4070 nM and 10700 nM
- GI50 (LOX IMVI melanoma): 8.7 nM and < 11.9 nM
- TGI (LOX IMVI melanoma): 1380 nM and 2160 nM
- GI50 (CCRF-CEM leukemia): 286 nM and 400 nM
- TGI (CCRF-CEM leukemia): > 25100 nM
- GI50 (HCC-2998 colon): 13.5 nM and 45.3 nM
- TGI (HCC-2998 colon): 2220 nM and 3980 nM
- GI50 (786-0 renal): 281 nM and 820 nM
- TGI (786-0 renal): 4750 nM and 4450 nM
- GI50 (SN12C renal): 19.3 nM and < 17.6 nM
- TGI (SN12C renal): > 4660 nM and 3840 nM
- GI50 (NCI-H522 lung): < 16.8 nM and 39.8 nM
- TGI (NCI-H522 lung): 2280 nM and 2740 nM
- GI50 (SK-MEL-5 melanoma): 142 nM and 162 nM
- TGI (SK-MEL-5 melanoma): 1840 nM and 2260 nM
- GI50 (A549 NSCLC): 91.1 nM and 291 nM
- TGI (A549 NSCLC): > 50900 nM

Structure (SMILES): Cn1c([N+](=O)[O-])cnc1/C=C1\Oc2cc(Cl)ccc2C1=O
- GI50 (M14 melanoma): 499 nM
- TGI (M14 melanoma): 4610 nM
- GI50 (NCI-H460 lung): 297 nM
- TGI (NCI-H460 lung): 3400 nM
- GI50 (LOX IMVI melanoma): 200 nM
- TGI (LOX IMVI melanoma): 553 nM
- GI50 (CCRF-CEM leukemia): 148 nM
- TGI (CCRF-CEM leukemia): 754 nM
- GI50 (HCC-2998 colon): 2040 nM
- TGI (HCC-2998 colon): 4810 nM
- GI50 (786-0 renal): 1080 nM
- TGI (786-0 renal): 4750 nM
- GI50 (SN12C renal): 713 nM
- TGI (SN12C renal): 6650 nM
- GI50 (NCI-H522 lung): 679 nM
- TGI (NCI-H522 lung): 2360 nM
- GI50 (SK-MEL-5 melanoma): 289 nM
- TGI (SK-MEL-5 melanoma): 1220 nM
- GI50 (A549 NSCLC): 1700 nM
- TGI (A549 NSCLC): 7060 nM
